# Residues, ends and D or L forms follow the SMILES beside them. *: point of attachment. Boc = CC(C)(C)OC(=O)*
# Details: not given
row,SMILES,logP
1,CCCCn1cnc2c(NC(C)=O)ncnc21,0.55
2,O=C1C(=O)c2ccccc2-c2ccccc21,2.52
3,O=C(O)Cc1ccccc1Nc1c(F)cccc1Cl,3.8
4,C#CCN(CC#C)CC#C,1.27
5,CCn1cnc2c(NC(C)=O)ncnc21,-0.41
6,CC1(C)N=C(N)N=C(N)N1c1cccc(OCCOc2ccccc2)c1,-0.84
7,CC(C)(C)C(O)(CCc1ccc(Cl)cc1)Cn1cncn1 (stereo not drawn),3.7
8,O=C(O)Cc1ccc(N2Cc3ccccc3C2=O)cc1,2.9
9,CC(=O)N[C@@H](CC(C)C)C(=O)N[C@@H](CCCNC(=N)N)C(=O)N[C@@H](Cc1ccccc1)C(N)=O,-0.06
10,c1cnc2nc[nH]c2c1,0.3
11,CC(C)(C)C(=O)c1ccccc1,3
12,Cc1ncc[nH]1,0.24
13,CCCCCCn1cc(C)c(=O)[nH]c1=O,1.93
14,C=CCOCC1CO1 (stereo not drawn),0.46
15,N#Cc1ccc(C#N)cc1,0.93
16,Fc1cc(F)c(F)c(F)c1F,2.53
17,CC1C=CCN1 (stereo not drawn),1.87
18,CC(C)(NC(=O)C(Br)C(C)(C)C)c1ccccc1 (stereo not drawn),3.46
19,Nc1cc(Cl)c(Cl)cc1N,2
20,CCCCn1cc(C)c(=O)[nH]c1=O,0.91
21,O=C(CCn1ccnc1[N+](=O)[O-])NCCO,-1.08
22,CCn1cnc([N+](=O)[O-])n1,-0.23

row,SMILES,logP
1,ON=Cc1nnc(-c2ccccc2)o1,2.03
2,CC(=O)C(C)C,0.84
3,Cc1ccnc(=O)[nH]1,-1.45
4,CCC(=O)N(C)C,-0.11
5,ClC(Cl)C(Cl)(Cl)Cl,3.22
6,CC#CC#CC,2.24
7,CN(C)/C=C/[N+](=O)[O-],-0.8
8,CC(C)(C)NCC(O)COCCCc1ccccc1 (stereo not drawn),2.58
9,CCC(C)C(C)(C)C(N)=O (stereo not drawn),1.81
10,Cc1cc(C)[nH]n1,1.01
11,CS(=O)(=O)ON1C(=O)c2ccc([N+](=O)[O-])cc2C1=O,1.71
12,COc1ccc(C(C)=O)c(OC)c1OC,1.63
13,CN(C)c1ccc2c(c1)C(=O)N(O)C2=O,1.27
14,c1ccc(P(c2ccccc2)c2ccccc2)cc1,5.69
15,COc1ccc2cc(C(C)C(=O)OCC(=O)N(C)CC(N)=O)ccc2c1 (stereo not drawn),1.37
16,CN(C)C(=O)c1ccccc1O,0.44
17,CCON=C(OC(=O)c1ccccc1)c1c(OC)ccc(Cl)c1OC,2.4
18,CC1=C(/C=C/C(C)=C/C=C/C(C)=C/CO)C(C)(C)CCC1,5.68
19,CNC(=O)c1ccoc1,0.34
20,CCc1cccc(CC)c1NC(=O)OC,1.99
21,C[C@H](NC(=O)N(CCCl)N=O)C(=O)O,0.78
22,CC(C(=O)O)c1ccc(N2C(=O)C3CCCCC3C2O)cc1 (stereo not drawn),2.95

row,SMILES,logP
1,CN(C)N=Nc1ccc(CCCC(=O)O)cc1,2.62
2,O=C1C=C(N2CCCC2)C(=O)C=C1N1CCCC1,1.97
3,CCc1ccncc1,1.65
4,CN(C(=O)COc1nc2ccccc2s1)c1ccccc1,3.23
5,COc1ccc2cc([C@H](C)C(=O)OCC(=O)N(CCO)CCO)ccc2c1,1.7
6,O=C1CC(Sc2nc3ccccc3s2)N1 (stereo not drawn),2.3
7,CC1CN1C1=CC(=O)C(N2CC2C)=CC1=O (stereo not drawn),1.07
8,COc1ccccc1NC(=O)Nc1ccccc1OC,2.98
9,O=[N+]([O-])c1cccc(SSc2cccc([N+](=O)[O-])c2)c1,4.06
10,C/C=C\C=C\C,2.8
11,CCCCOC,1.66
12,CC(=S)N(c1ccccc1)c1ccccc1,2.83
13,N#Cc1cccc(F)c1,1.47
14,CCCCOCN(C(=O)CCl)c1c(CC)cccc1CC,4.5
15,Oc1ccc(Sc2ccc(O)cc2)cc1,3.34
16,N#CNc1ccccc1,1.87
17,NNP(=O)(Oc1ccccc1)Oc1ccccc1,1.51
18,Cc1cc2ccccc2cn1,2.68
19,O=Nc1ccc(NO)cc1,1.49
20,O=C(Nc1ccccc1)Nc1ccccc1,3
21,COc1cc(C)c2c(c1OC)C1CCC(NCc3ccccc3)C(=O)CC1C(NC(C)=O)CC2 (stereo not drawn),3.58
22,FC(F)(F)c1cccc(C(F)(F)F)c1,3.83

row,SMILES,logP
1,O=S1(=O)OCC2C(CO1)C1(Cl)C(Cl)=C(Cl)C2(Cl)C1(Cl)Cl (stereo not drawn),3.66
2,FC1(F)C(F)(F)C(F)(F)C(F)(F)C(F)(F)C1(F)F,2.91
3,O/N=C/c1ccncc1,0.77
4,O=C1C=C(N2CC=CC2)C(=O)c2ccccc21,2.85
5,NC(=S)N1CCCCC1,0.73
6,OCCCF,-0.28
7,c1ccc(N2CCCC2)cc1,3.56
8,NC1CC1,0.07
9,O=[N+]([O-])c1ccc(/C=N/O)cc1,1.95
10,O=Cc1ccccn1,0.44
11,FN(F)C(c1ccccc1)(c1ccccc1)c1ccccc1,3.73
12,c1ncc2c(n1)-c1cn[nH]c1-2,0.14
13,C=C(C)CN(CC)c1c([N+](=O)[O-])cc(C(F)(F)F)cc1[N+](=O)[O-],5.11
14,CC(C)(C)Cl,1.82
15,NC(=O)Nc1cccc2cccnc12,1.62
16,CNC=O,-0.97
17,Fc1cccc(F)n1,1.17
18,O=C(O)Cc1ccccc1Nc1c(F)cccc1F,3.57
19,CCN(C(=O)SCc1ccccc1)C(C)C(C)C (stereo not drawn),4.6
20,CC1(C)CCC(C)(C)O1,2.06
21,C1=c2ccc3cccc4ccc(c2c43)CC1,4.92
22,CC(=O)C1CC1,0.49

row,SMILES,logP
1,Cn1c(N)nc2cc(Cl)ccc21,2.09
2,CCCCC(NC(Cc1ccccc1)C(=O)N1CCC(OCOC)CC1)C(=O)NC(CC1CCCCC1)C(O)CC(C(=O)NCCNC(N)=NC#N)C(C)C (stereo not drawn),4.14
3,O=[N+]([O-])c1ccccc1SSc1ccccc1[N+](=O)[O-],3.37
4,Cn1cccc1/C=N/NC(=S)Nc1ccccc1,3.64
5,O=C(OCCCc1cnc[nH]1)c1ccccc1,2.64
6,Cc1ccccc1COC1CC2(C(C)C)CCC1(C)O2 (stereo not drawn),3.83
7,S=C(N/N=C/c1ccco1)Nc1ccccc1,3.13
8,C1COC1,-0.14
9,Clc1nc(Cl)nc(Nc2ccccc2Cl)n1,3
10,CC(C(=O)O)c1ccc(N2C(=O)C3C4C=CCC3(C4)C2=O)cc1 (stereo not drawn),2.31
11,Ic1ccc(I)cc1,4.11
12,O/N=C/c1ccc(Cl)cc1,2.67
13,CCNC(=O)C1C2C=CC(C2)C1C(=O)NCC (stereo not drawn),0.99
14,O=[N+]([O-])c1cc2[nH]c(C(F)(F)F)nc2cc1Cl,3.21
15,COc1cccc2ccccc12,3.63
16,CCCSP(=O)(OCC)Oc1cnn(-c2ccc(Cl)cc2)c1 (stereo not drawn),3.77
17,C1=C\C=C/C=C\C=C/1,3.08
18,CC(C)C(C#N)Cc1ccc(Cl)cc1 (stereo not drawn),3.41
19,CCC12CCN(C)C(Cc3ccc(O)cc31)C2C (stereo not drawn),-1.14
20,FC(F)(F)c1ccc(C(F)(F)F)cc1,3.83
21,O=C(O)COc1cc(F)cc(I)c1,2.42
22,N#Cc1ccc2[nH]c(N)nc2c1,1.13

# Same assay, conditions: pH 1.0
row,SMILES,logD
1,CC(C)(C)C#N,1.08
2,CC(C=CC1=C(C)CCCC1(C)C)=CC=CC(C)=CC(=O)O,6.3
3,CC(C)(C)OC(=O)N[C@@H](Cc1ccccc1)C(=O)N[C@@H](Cc1ccc(O)cc1)C(=O)O (Boc-Phe-Tyr-OH),2.79
4,O=C(O)C1CC1,0.63
5,O=C(O)c1c(Cl)cccc1Cl,2.23
6,O=C(O)c1c2ccccc2cc2ccccc12,3.85

# Same assay, conditions: pH 2.1
row,SMILES,logD
1,CC(=O)Nc1ccc(S(N)(=O)=O)cc1,0

# Same assay, conditions: pH 3.9
row,SMILES,logD
1,COC(=O)Nc1cccc(OC(=O)Nc2cccc(C)c2)c1,3.59

# Same assay, conditions: pH 4.0
row,SMILES,logD
1,CC(=NNc1ccc([N+](=O)[O-])cc1[N+](=O)[O-])C(F)(F)F,3.3
2,N#Cc1ccc(NN=C(C(F)(F)F)C(F)(F)F)c([N+](=O)[O-])c1,3.4
3,O=[N+]([O-])c1cc(C(F)(F)F)ccc1NN=C(C(F)(F)F)C(F)(F)F,4.8

# Same assay, conditions: pH 5.0
row,SMILES,logD
1,Sc1nc(-c2ccccc2)ns1,2.13
2,CCOC(=O)CCl,0.94

# Same assay, conditions: pH 7.0
row,SMILES,logD
1,CNc1ncnc2c1ncn2[C@H]1C[C@H](O)[C@@H](CO)O1,-0.19
2,CCOC(=O)N[C@H]1CCc2cc(OC)c(OC)c(OC)c2-c2ccc(OC)c(=O)cc21,1.3
3,Nc1nc(=O)n([C@H]2CC[C@@H](CO)O2)cc1I,-0.31
4,COc1c2c(cc3c1-c1ccc(OC)c(=O)cc1C(NC(C)=O)CC3)OCO2 (stereo not drawn),1.6

# Same assay, conditions: pH 7.4
row,SMILES,logD
1,CCc1cccc2cccnc12,2.93
2,CNC(=O)c1cccc2cccnc12,1.87
3,O=C(/C=C/c1ccc([N+](=O)[O-])o1)N/N=C/c1ccc([N+](=O)[O-])o1,2.22
4,O=[N+]([O-])c1cn(Cc2ccccc2)cn1,1.36
5,Nc1ccc2c(n1)[nH]c1ccccc12,2.6
6,Cc1ccnc2ccccc12,2.61
7,COC(=O)Cn1c([N+](=O)[O-])cnc1C,0.17
8,CCCc1ccc([N+](=O)[O-])cc1,3.45
9,CCN(CCO)c1ccccc1,2.1
10,Cc1cc([N+](=O)[O-])cc2c1NC(=O)CN=C2c1ccccc1,2.33
11,Cc1ncc([N+](=O)[O-])n1CCNC(=O)OC(C)C,0.88
12,CN1C(=O)CN=C(c2ccccc2F)c2c(F)cccc21,2.41
13,CS(=O)c1ccc2c(c1)C(c1ccccc1)=NCC(=O)N2 (stereo not drawn),0.8
14,CN(C)c1ccc2c(c1)C(c1ccccc1Cl)=NCC(=O)N2C,2.72

# Same assay, conditions: pH 12.0
row,SMILES,logD
1,Nc1ccc2cc3ccc(N)cc3nc2c1,1.83

# Same assay, conditions: pH 13.0
row,SMILES,logD
1,CN(C1CCCCC1)C1CCCCC1,3.71
2,Cc1cc(C)c(N(C)C)c(C)c1,4.44
3,CC(C)CN(CC(O)COc1ccccc1)CC(O)COc1ccccc1 (stereo not drawn),3.46
4,N=C(N)c1ccccc1,0.65
5,CN(C)CCNCCN,-0.92
6,CCNCCNCC,0.21
7,C#CCN,-0.43
8,CN1CCCNCC1,-0.4
9,c1ccc(N2CCNCC2)cc1,1.11
10,COc1c(C(C)C)cc(Cc2cnc(N)nc2N)cc1C(C)C,3.47
11,NCCCN1CCN(CCCN)CC1,-1.43
12,Cc1cc(Cc2cnc(N)nc2N)cc(C(C)C)c1N,1.77
13,COc1cccc(OC)c1Cc1cnc(N)nc1N,1.7
14,COc1c(C)ccc(Cc2cnc(N)nc2N)c1C(C)(C)C,3.05
15,C1CCC2=NCCCN2CC1,1.38
16,N=C(N)c1ccc(N)cc1,-0.49

# Source: the SangsterLogP compilation
